In order of falling logP:
1. CCCOc1cc(C)c(C(=O)C(C)(C)CN2CCCCC2)c(C)c1  4.51
2. Cc1cc(C)c(C(=O)C(C)(C)CN2CCCCC2)c(C)c1  4.36
3. Cc1cccc(C)c1C(=O)C(C)(C)CN1CCCCC1  4.2
4. CCCOc1cc(C)c(C(=O)C(C)CN2CCCCC2)c(C)c1 (stereo not drawn)  4.11
5. CCCOc1ccc(C(=O)C(C)(C)CN2CCCCC2)cc1  4.07
6. CCCOc1ccc(C(=O)C(C)CN2CCCCC2)c(C)c1 (stereo not drawn)  4
7. Cc1cc(C)c(C(=O)C(C)CN2CCCCC2)c(C)c1 (stereo not drawn)  3.98
8. Cc1ccc(C(=O)C(C)(C)CN2CCCCC2)cc1  3.92
9. CCCOc1ccc(C(=O)CCN2CCCCC2)c(C)c1  3.88
10. Cc1ccc(C(=O)C(C)CN2CCCCC2)c(C)c1 (stereo not drawn)  3.85
11. CCCOc1cc(C)c(C(=O)CCN2CCCCC2)c(C)c1  3.84
12. Cc1cccc(C)c1C(=O)C(C)CN1CCCCC1 (stereo not drawn)  3.81
13. CCCOc1ccc(C(=O)C(C)CN2CCCCC2)cc1 (stereo not drawn)  3.81
14. CC(C)(CN1CCCCC1)C(=O)c1ccccc1  3.78
15. CCCOc1ccc(C(=O)CCN2CCCCC2)cc1  3.72
16. Cc1ccc(C(=O)CCN2CCCCC2)c(C)c1  3.71
17. Cc1cc(C)c(C(=O)CCN2CCCCC2)c(C)c1  3.7
18. Cc1ccccc1C(=O)C(C)CN1CCCCC1 (stereo not drawn)  3.69
19. Cc1ccc(C(=O)C(C)CN2CCCCC2)cc1 (stereo not drawn)  3.65
20. Cc1ccc(C(=O)CCN2CCCCC2)cc1  3.55
21. Cc1ccccc1C(=O)CCN1CCCCC1  3.54
22. Cc1cccc(C)c1C(=O)CCN1CCCCC1  3.53
23. CC(CN1CCCCC1)C(=O)c1ccccc1 (stereo not drawn)  3.51
